Laboratory results reported in the supplement of paper PMC10307832.

How the values were obtained:
Assay in all cases: relative viability (nuclei count vs DMSO), 5 days (fraction); higher = more cells survive
[1] = test system: LU99A
How it was run: (§1)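 Lung cancer cell lines in 1536-well plates were dosed by pin tool the day after seeding, either with one drug alone or with a fixed anchor-drug dose plus five library-drug doses (not always all listed) in √10 steps. After 5 days, cells were fixed and their nuclei stained in one step (final 0.05% Triton X-100, 1% formaldehyde, 1 ug/ml Hoechst), then counted on 4× images. Relative viability is the nuclei count in treated wells divided by that in vehicle wells. Values are medians of duplicate plates.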

[2] = test system: EKVX
How it was run: as §1

[3] = test system: NCI-H650
How it was run: as §1

[4] = test system: NCI-H1355
How it was run: as §1

[5] = test system: NCI-H838
How it was run: as §1

[6] = test system: LC-2-ad
How it was run: as §1

[7] = test system: NCI-H1793
How it was run: as §1

[8] = test system: LCLC-97TM1
How it was run: as §1

[9] = test system: NCI-H460
How it was run: as §1

[10] = test system: NCI-H1650
How it was run: as §1

[11] = test system: PC-3 [JPC-3]
How it was run: as §1

[12] = test system: NCI-H1915
How it was run: as §1

[13] = test system: RERF-LC-KJ
How it was run: as §1

[14] = test system: NCI-H23
How it was run: as §1

[15] = test system: SW 1573
How it was run: as §1

[16] = test system: NCI-H520
How it was run: as §1

[17] = test system: NCI-H1993
How it was run: as §1

[18] = test system: NCI-H2347
How it was run: as §1

[19] = test system: NCI-H1666
How it was run: as §1

[20] = test system: LOU-NH91
How it was run: as §1

[21] = test system: BEN
How it was run: as §1

[22] = test system: A-427
How it was run: as §1

Cc1cnc(-c2cnc(NCCNc3ccc(C#N)cn3)nc2-c2ccc(Cl)cc2Cl)[nH]1 + Nc1ncn([C@H]2C[C@H](O)[C@@H](CO)O2)c(=O)n1 [Decitabine] (partner 2 µM)
relative viability ([1]; first compound 0.08 µM): 0.954
relative viability ([1]; first compound 0.253 µM): 0.873
relative viability ([1]; first compound 0.8 µM): 0.938
relative viability ([1]; first compound 2.53 µM): 0.775
relative viability ([2]; first compound 0.08 µM): 0.386
relative viability ([2]; first compound 0.253 µM): 0.315
relative viability ([2]; first compound 0.8 µM): 0.34
relative viability ([2]; first compound 2.53 µM): 0.351
relative viability ([3]; first compound 0.08 µM): 0.356
relative viability ([3]; first compound 0.253 µM): 0.339
relative viability ([3]; first compound 0.8 µM): 0.302
relative viability ([3]; first compound 2.53 µM): 0.329
relative viability ([4]; first compound 0.08 µM): 0.354
relative viability ([4]; first compound 0.253 µM): 0.316
relative viability ([4]; first compound 0.8 µM): 0.36
relative viability ([4]; first compound 2.53 µM): 0.371
relative viability ([5]; first compound 0.08 µM): 0.503
relative viability ([5]; first compound 0.253 µM): 0.506
relative viability ([5]; first compound 0.8 µM): 0.47
relative viability ([5]; first compound 2.53 µM): 0.46
relative viability ([6]; first compound 0.08 µM): 0.791
relative viability ([6]; first compound 0.8 µM): 0.885
relative viability ([6]; first compound 2.53 µM): 0.776
relative viability ([7]; first compound 0.08 µM): 0.494
relative viability ([7]; first compound 0.253 µM): 0.514
relative viability ([7]; first compound 0.8 µM): 0.583
relative viability ([7]; first compound 2.53 µM): 0.541
relative viability ([8]; first compound 0.08 µM): 0.213
relative viability ([8]; first compound 0.253 µM): 0.248
relative viability ([8]; first compound 0.8 µM): 0.235
relative viability ([8]; first compound 2.53 µM): 0.227
relative viability ([9]; first compound 0.08 µM): 0.537
relative viability ([9]; first compound 0.253 µM): 0.454
relative viability ([9]; first compound 0.8 µM): 0.54
relative viability ([9]; first compound 2.53 µM): 0.488
relative viability ([10]; first compound 0.08 µM): 0.478
relative viability ([10]; first compound 0.253 µM): 0.259
relative viability ([10]; first compound 0.8 µM): 0.397
relative viability ([10]; first compound 2.53 µM): 0.443
relative viability ([11]; first compound 0.08 µM): 0.777
relative viability ([11]; first compound 0.253 µM): 0.825
relative viability ([11]; first compound 0.8 µM): 0.785
relative viability ([11]; first compound 2.53 µM): 0.791
relative viability ([12]; first compound 0.08 µM): 0.275
relative viability ([12]; first compound 0.8 µM): 0.286
relative viability ([12]; first compound 2.53 µM): 0.264
relative viability ([13]; first compound 0.08 µM): 0.713
relative viability ([13]; first compound 0.253 µM): 0.702
relative viability ([13]; first compound 0.8 µM): 0.66
relative viability ([13]; first compound 2.53 µM): 0.599
relative viability ([14]; first compound 0.08 µM): 0.382
relative viability ([14]; first compound 0.253 µM): 0.293
relative viability ([14]; first compound 0.8 µM): 0.323
relative viability ([14]; first compound 2.53 µM): 0.387
relative viability ([15]; first compound 0.08 µM): 0.583
relative viability ([15]; first compound 0.253 µM): 0.457
relative viability ([15]; first compound 0.8 µM): 0.474
relative viability ([15]; first compound 2.53 µM): 0.354
relative viability ([16]; first compound 0.08 µM): 0.531
relative viability ([16]; first compound 0.253 µM): 0.504
relative viability ([16]; first compound 0.8 µM): 0.563
relative viability ([16]; first compound 2.53 µM): 0.546
relative viability ([17]; first compound 0.08 µM): 0.744
relative viability ([17]; first compound 0.253 µM): 0.584
relative viability ([17]; first compound 0.8 µM): 0.628
relative viability ([17]; first compound 2.53 µM): 0.591
relative viability ([18]; first compound 0.08 µM): 0.708
relative viability ([18]; first compound 0.253 µM): 0.55
relative viability ([18]; first compound 0.8 µM): 0.65
relative viability ([18]; first compound 2.53 µM): 0.65
relative viability ([19]; first compound 0.08 µM): 0.759
relative viability ([19]; first compound 0.253 µM): 0.713
relative viability ([19]; first compound 0.8 µM): 0.618
relative viability ([19]; first compound 2.53 µM): 0.844
relative viability ([20]; first compound 0.08 µM): 0.818
relative viability ([20]; first compound 0.253 µM): 0.799
relative viability ([20]; first compound 0.8 µM): 0.852
relative viability ([20]; first compound 2.53 µM): 0.802
relative viability ([21]; first compound 0.08 µM): 0.768
relative viability ([21]; first compound 0.253 µM): 0.716
relative viability ([21]; first compound 0.8 µM): 0.663
relative viability ([21]; first compound 2.53 µM): 0.8
relative viability ([22]; first compound 0.08 µM): 0.535
relative viability ([22]; first compound 0.253 µM): 0.526
relative viability ([22]; first compound 0.8 µM): 0.61
relative viability ([22]; first compound 2.53 µM): 0.618
